Experimental findings from EPA's ToxValDB 9.5 (doi:10.2903/j.efsa.2008.145r) are described below.

One series concerns Coturnix japonica. The settings on record: acute, oral, mortality.
A further series relates to Tagia sp. As to conditions: acute; duration: 14 days; mortality.
A further series deals with Daphnia magna. The settings on record: chronic/long-term; duration: 21 days; reproduction.
A further series has as its system Apis mellifera. As to conditions: acute; duration: 48 hours; oral; unspecified; mortality.
The subject of a further series is Bibionidae. As to conditions: chronic/long-term; duration: 28 days.

The term NOAEL denotes the highest dose or exposure tested at which no adverse effect was seen.

Converted amounts (≈) assume the structure as drawn. Where only a bound is given, the exact number is not on record here.

For the compound `Cc1cccc(C)c1N(Cn1cccn1)C(=O)CCl` [Metazachlor], the LD50 in the series on Coturnix japonica (diet) is above 449 mg/kg-day; in the series with Coturnix japonica, above 2000 mg/kg; in the series with Colinus virginianus (acute, oral, mortality), above 2000 mg/kg; in the series with Apis mellifera it was above 72.2 µg/piece; in the series with Rattus norvegicus (acute, mortality), above 2000 mg/kg. This compound came in with an NOEL in the series on Colinus virginianus (reproduction developmental) of 76.5 mg/kg-day. For the same compound, the LC50 with Oncorhynchus mykiss (acute, duration: 96 hours, mortality) was 8.5 mg/L (≈ 30.6 µM); in the series on Tagia sp. it was above 1000 mg/kg. The NOEC in the series with Oncorhynchus mykiss (chronic/long-term, duration: 28 days, growth) is 2.15 mg/L; in the series on Daphnia magna, 0.1 mg/L; in the series with Bibionidae, 7.93 mg/kg. Also, the NOAEL with Rattus norvegicus (chronic) amounted to 79 mg/kg-day; in the series with Rattus norvegicus (chronic, duration: 2 years, organ weight), 8.5 mg/kg-day; with Rattus norvegicus (developmental, development), 50 mg/kg-day; in the series with Rattus norvegicus (subchronic, duration: 90 days, oral, organ weight) it was 21 mg/kg-day.
